# Tests used:
# [1] = Langmuir isotherms, determination of affinity and capacity; assay type: physicochemical; details: Langmuir isotherm at pH 5, 10 mM phosphate, 0.9% NaCl, binder mass 13.4-80.4 mg
# Experimental: The Langmuir isotherms were obtained using the same methodology as in Autissier et al. (2007), except in vitro solutions also contained 0.9% NaCl to make the assay better simulate physiological conditions. These Langmuir isotherms were generated at pH 5 and experimental conditions were similar to those in “Phosphate binding at physiological concentration” except the mass of binders was varied from 13.4-80.4 mg.
# We further compared the phosphate binding abilities of FeOH Ad100, FeOH Ad100 SiO2, and lanthanum using Langmuir isotherms. The Langmuir equation relates the adsorption of molecules on a solid surface to a concentration and was adapted to determine the affinity and capacity of the above noted phosphate binders:
# C=concentration of adsorbate unbound in mM
# Cad/m=mmol of adsorbate bound per g binder
# It was not possible to determine these values for Renagel because its low affinity required a higher concentration of phosphate than the physiologically relevant concentration (10 mM) that was tested in this experiment. Langmuir isotherms were generated at pH 5 and experimental conditions were similar to those in FIGS. 2a/b, except the mass of binders was varied from 13.4-80.4 mg.
# [2] = In vitro phosphate binding at physiological concentration; assay type: physicochemical
# Experimental: An exemplary assay for determining phosphate binding is reported in the example 2.1 in which equal masses of ferrihydrite (e.g. 53.6 mg), or indeed any other binder used as a comparison, and a phosphate binder of the present invention were assayed to determine the percentage of phosphate they are capable of binding under physiological conditions. In general, the mass of the materials used in the assay may be between 10 mg and 80 mg inclusive in a 20 mL assay. […]
# A solution containing 10 mM phosphate, a physiologically relevant concentration, and 0.9% NaCl was adjusted to pH 3, pH 5 and finally pH 7. […] The percentage of phosphate binding was calculated according to: Phosphate binding=(1−([P]t0−[P]ti)/[P]ti)×100 […]
# Iron and phosphorus contents of solutions or solids (including wet solids) were measured using a JY2000-2 ICPOES (Horiba Jobin Yvon Ltd., Stanmore, U.K.) at the iron specific wavelength of 259.940 nm, and at the phosphorus wavelengths of 177.440 and/or 214.914 nm. […] The percentage of iron in solution or solid phase was determined by the difference between the starting iron content and either the iron in the soluble phase or the iron in the solid phase depending on the assay. […]
compound,measurement,setting,value
"O=C([O-])[O-].O=C([O-])[O-].O=C([O-])[O-].[La+3].[La+3] [Lanthanum Carbonate, Lanthanum carbonate]",K1 (Affinity),[1],1.6
same,K2 (Capacity),"[1]; unit printed for K2, not in the table",1.0 mmol P/g binder
same,phosphate binding,"[2]; 20 mL 10 mM phosphate, 0.9% NaCl, 54 mg (53.6 mg) binder, pH 3 for 60 min then pH 5 for 60 min, sequentially (FIG. 2a/b)",70-85%
same,phosphate binding,"[2]; binder exposed directly to the solution at pH 5 for 1 hour, without pre-conditioning at pH 3 (FIG. 3)",≈ 30%
